Source: article PMC8684776, “Discovery and characterization of potent And‐1 inhibitors for cancer treatment” (Clinical and Translational Medicine, 2021)
Structures can show the parent of a compound that is named as a salt. Where two headings read alike, the source gives them in different places. Blank lines part the entries; values can stand above or below the molecule they belong to.

Columns and labels:
And‐1 [1] = molecular target: T1, And‐1 (Homo sapiens, UniProt O75717); test: And‐1 luciferase reporter assay (qHTS of LOPAC); format: cell-based
T1 construct: expressed in transfected cells
T1 sequence (O75717 1-1129): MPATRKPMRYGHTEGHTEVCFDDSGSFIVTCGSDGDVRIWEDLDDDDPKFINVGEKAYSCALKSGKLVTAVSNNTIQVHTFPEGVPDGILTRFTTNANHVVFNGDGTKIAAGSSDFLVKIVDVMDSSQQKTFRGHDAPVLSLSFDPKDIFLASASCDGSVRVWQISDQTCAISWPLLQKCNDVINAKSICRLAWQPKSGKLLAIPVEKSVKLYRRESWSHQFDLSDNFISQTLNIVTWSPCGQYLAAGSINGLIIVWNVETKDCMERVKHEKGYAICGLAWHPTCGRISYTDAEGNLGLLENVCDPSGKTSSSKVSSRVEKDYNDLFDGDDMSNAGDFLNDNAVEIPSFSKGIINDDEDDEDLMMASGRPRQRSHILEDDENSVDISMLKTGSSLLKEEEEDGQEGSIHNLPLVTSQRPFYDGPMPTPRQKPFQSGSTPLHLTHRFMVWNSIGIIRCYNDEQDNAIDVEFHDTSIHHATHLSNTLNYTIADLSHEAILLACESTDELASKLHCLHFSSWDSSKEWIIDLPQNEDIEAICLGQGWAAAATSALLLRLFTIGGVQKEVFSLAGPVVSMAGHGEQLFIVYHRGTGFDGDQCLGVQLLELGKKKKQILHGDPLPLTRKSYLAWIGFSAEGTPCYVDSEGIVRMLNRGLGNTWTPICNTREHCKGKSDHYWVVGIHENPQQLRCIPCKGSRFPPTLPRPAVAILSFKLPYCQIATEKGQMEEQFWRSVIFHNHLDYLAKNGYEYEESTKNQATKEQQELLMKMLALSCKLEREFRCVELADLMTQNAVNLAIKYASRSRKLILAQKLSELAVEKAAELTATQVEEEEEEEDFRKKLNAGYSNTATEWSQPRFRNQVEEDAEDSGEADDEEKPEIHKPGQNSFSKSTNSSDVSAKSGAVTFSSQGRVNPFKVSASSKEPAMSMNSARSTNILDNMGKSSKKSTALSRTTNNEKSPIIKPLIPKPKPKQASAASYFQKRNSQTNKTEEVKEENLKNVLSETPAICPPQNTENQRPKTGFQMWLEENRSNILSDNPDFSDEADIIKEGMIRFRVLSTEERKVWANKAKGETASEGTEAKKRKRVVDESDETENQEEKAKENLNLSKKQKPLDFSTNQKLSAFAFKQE
Experimental: And‐1‐Luc reporter HEK293 cells were dispensed at 2000 cells/5 μl/well in tissue culture treated white wall/solid bottom 1536‐well plates (Greiner Bio‐One North America, Monroe, NC, USA) using a Thermo Scientific Multidrop Combi (ThermoFisher Scientific, Inc.). After the cells were incubated in assay plates at 37°C for 5 h, 23 nl of compounds (LOPAC) was transferred into the assay plates using a Wako Pintool station (Wako Automation, San Diego, CA, USA). The assay plates were incubated at 37°C for 48 h, followed by the addition of 5 μl ONE‐Glo luciferase reagent (Promega, Madison, WI, USA) using a Flying Reagent Dispenser (Aurora Discovery, Carlsbad, CA, USA). After 30 min of incubation at room temperature, the luminescence intensity of the assay plates was quantified using a ViewLux plate reader (PerkinElmer, Shelton, CT, USA).
(§1) To evaluate whether And‐1 is required for tumor survival, we examined the dependence of a broad range of tumor cells on And‐1 by using dependency score analysis from DepMap (https://depmap.org/portal/). […] To identify And‐1 specific pharmacologic inhibitor, we established an HTS assay to identify small molecules that can inhibit And‐1 by inducing its degradation. To this end, we first established two stable cell lines, HEK293T‐And‐1‐Luc expressing And‐1 protein fused to a luciferase reporter gene, and HEK293T‐Luc expressing luciferase only (Figure 1B). HEK293T‐And‐1‐Luc cells allow us to monitor And‐1 protein levels by measuring luciferase activity in a high‐throughput manner. Using these cell lines, we conducted a screening for And‐1 inhibitors against a LOPAC small molecule library by using a quantitative HTS (qHTS) as we described previously.[46]

And‐1 [2] = molecular target: T1, And‐1; test: Immunoblot of And‐1 expression in IGROV1 cells; format: cell-based; details: read-out: IC50, And‐1 expression
Description: (§2) The assay was as previously described.[45]
as §1
(A) Dependency score of WDHD1/And‐1 analyzed by DepMap. […] (B) Establishment of HEK293T‐And‐1‐Luc and HEK293T‐Luc cells for the high‐throughput screen (HTS). (C) Schematic diagram of quantitative HTS (qHTS) for And‐1 inhibitors. (D) Immunoblot analyses to detect And‐1 expression in IGROV1 cells treated with resveratrol at indicated concentrations. (E) Chemical structures of resveratrol and its three analogs as indicated. (F) Left, immunoblot analyses to detect And‐1 expression in IGROV1 cells treated with And‐1 inhibitors at the indicated concentration. Right, quantification of And‐1 expression shown in the left panel.

[3] = set-up: method as in PMID 15779070; details: due to rapid metabolism; cited from earlier work
IGROV1 CR cells = test: SRB cell viability assay, combination with cisplatin; format: cell-based, human; details: by combination index (CI < 1 synergism)
Experimental: as §2
Synergy of each combination was indicated as combination index (CI) values. […] (C) Tumors of IGROV1 CR xenograft treated with control (vehicle), cisplatin (8 mg/kg/day intraperitoneally), CH3 (20 mg/kg/3days intraperitoneally), or a combination of CH3 and cisplatin for 3 weeks. Ruler scale is in centimeters. (D) Growth curves of IGROV1 CR xenografts. […] (E) IHC staining against And‐1 antibodies of tumor samples from four treated groups of mice. Scale bar: 50 μm. […] Ruler scale is in centimeters. (G) Growth curves of IGROV1 CR xenografts. […] (H) IHC staining against And‐1 antibodies of tumor samples from four treated groups of mice. Scale bar: 50 μm.

IGROV1 cells [4] = test: Flow cytometry cell cycle analysis (propidium iodide); format: cell-based, human; details: 1 µM, FACS
Description: And‐1 is involved in DNA replication in the S‐phase and is required for the S‐phase progression.[15] We assumed that And‐1 inhibitors should be able to inhibit DNA replication by targeting And‐1.
(§3) Supplementary Figure S1. Identification of novel And-1 inhibitors. […]
Molecular weight of each compound was indicated. (C) Flow cytometry

IGROV1 cells [5] = test: Immunofluorescence of CtIP recruitment to micro-irradiation induced DSB sites; format: cell-based, human; details: 1 µM
Experimental: as §3
siAnd-1. S: S phase. (D) Immunofluorescence assay to detect CtIP and γH2AX foci formation after CH3 […]
IGROV1 cells treated with DMSO, 1 […]
to immunostain γH2AX and CtIP. For each experiment, 50 cells were counted and the percentage of cells with co-localization of γH2AX and CtIP foci was determined. Data represent means ± SEM from three independent experiments. (E) HR reporter assay to detect HR repair efficiency in cells treated with CH3. […]

IGROV1 CR xenografts = test: Cisplatin resistant IGROV1 CR xenograft in nude mice; format: in vivo, mouse
[6] = reduction of luciferase activity, qHTS, average of 1 and 2, read-out: IC50 (uM) average
[7] = reduction of luciferase activity, qHTS, column 1, read-out: IC50 (uM) 1
[8] = reduction of luciferase activity, qHTS, column 2, read-out: IC50 (uM) 2
[9] = reduction of luciferase activity, qHTS, column 2

Compound: CNc1ccc2oc(C[C@H]3O[C@@]4(CC[C@H]3C)O[C@H]([C@H](C)C(=O)c3ccc[nH]3)[C@H](C)C[C@H]4C)nc2c1C(=O)O [Calcimycin]
DC50 (And‐1 [1]; [6]): 8.32 µM
DC50 (And‐1 [1]; [7]): 6.1 µM
DC50 (And‐1 [1]; [8]): 10.5 µM

Compound: c1ccc2c(c1)[I+]c1ccccc1-2 [Diphenyleneiodonium chloride]
DC50 (And‐1 [1]; read-out: IC50 (uM) 1): 0.84 µM
DC50 (And‐1 [1]; read-out: IC50 (uM) 2): 0.03 µM
DC50 (And‐1 [1]; read-out: IC50 (uM) average): 0.43 µM

Compound: O=C1C(SCCO)=C(SCCO)C(=O)c2ccccc21 [NSC 95397]
IC50 (And‐1 [1]; [6]): 9.42 µM
IC50 (And‐1 [1]; [7]): 11.2 µM
IC50 (And‐1 [1]; [8]): 7.68 µM

Compound: CCN(CC)CCOc1ccc(Nc2ncc3cc(-c4c(Cl)cccc4Cl)c(=O)n(C)c3n2)cc1 [PD-166285 hydrate]
IC50 (And‐1 [1]; [6]): 3.03 µM
IC50 (And‐1 [1]; [7]): 3.33 µM
IC50 (And‐1 [1]; [8]): 2.73 µM

Compound: C/C=C(/C)C(=O)O[C@H]1C(C)=C2[C@H]([C@@H]1OC(=O)CCCCCCC)[C@@](C)(OC(C)=O)C[C@H](OC(=O)CCC)[C@@]1(O)[C@H]2OC(=O)[C@@]1(C)O [Thapsigargin]
DC50 (And‐1 [1]; [6]): 6.95 µM
DC50 (And‐1 [1]; [7]): 13.3 µM
DC50 (And‐1 [1]; [8]): 0.63 µM

Compound: CC[n+]1c(/C=C/C=C2/N(C)c3ccccc3C2(C)C)sc2ccccc21 [AC-93253 iodide]
IC50 (And‐1 [1]; [6]): 0.76 µM
IC50 (And‐1 [1]; [7]): 1.09 µM
IC50 (And‐1 [1]; [8]): 0.44 µM

Compound: CC[C@@]1(O)C(=O)OCc2c1cc1n(c2=O)Cc2cc3ccccc3nc2-1 [(S)-(+)-Camptothecin]
IC50 (And‐1 [1]; [7]): 0.73 µM
IC50 (uM) 2 (And‐1 [1]; [9]): inactive

Continued, in another order:

DC50 (And‐1 [1]; HEK293T‐And‐1‐Luc cells, qHTS, read-out: IC50, reduction of And‐1 levels (screening)): 18.9 µM
DC50 (And‐1 [1]; [6]): 18.9 µM
DC50 (And‐1 [1]; [7]): 14.9 µM
DC50 (And‐1 [1]; [8]): 22.9 µM
DC50 (And‐1 [2]): 16.7 µM
Compound: Oc1ccc(/C=C/c2cc(O)cc(O)c2)cc1 [Resveratrol, 3,5,4′‐trihydroxy‐trans‐stilbene]
oral bioavailability [3]: low oral bioavailability

IC50 (And‐1 [1]; [7]): 0.61 µM
IC50 (uM) 2 (And‐1 [1]; [9]): inactive
Compound: CC[C@@]1(O)C(=O)OCc2c1cc1n(c2=O)Cc2cc3c(CN(C)C)c(O)ccc3nc2-1 [Topotecan hydrochloride hydrate]

DC50 (And‐1 [1]; [7]): 1.67 µM
IC50 (uM) 2 (And‐1 [1]; [9]): inactive
Compound: COc1cc2c(cc1O)CC[C@@H]1[C@@H]2CC[C@]2(C)[C@@H](O)CC[C@@H]12 [2-methoxyestradiol]

DC50 (And‐1 [2]): 0.32 µM
Compound: Cc1c(-c2ccc(O)cc2)n(Cc2ccc(OCCN3CCCCCC3)cc2)c2ccc(O)cc12 [BZA, bazedoxifene acetate]
synergy with cisplatin to inhibit cell proliferation (IGROV1 CR cells): significant synergy with cisplatin
percentage of cells in the S‐phase (IGROV1 cells [4]): reduced the percentage of cells in the S‐phase
recruitment of CtIP to DSB sites induced by micro‐irradiation (IGROV1 cells [5]): significantly decreased
expression of And‐1 in tumours (IHC) (IGROV1 CR xenografts): suppressed expression of And‐1 in tumours
resistant tumour growth, combination with cisplatin vs cisplatin alone (IGROV1 CR xenografts; cisplatin 8 mg/kg + CH3 20 mg/kg or BZA 2 mg/kg, intraperitoneal, 3 weeks): significantly reduced resistant tumour growth

DC50 (And‐1 [1]; [7]): 0.02 µM
IC50 (uM) 2 (And‐1 [1]; [9]): inactive
Compound: Nc1ccn([C@@H]2O[C@H](CO)[C@@H](O)C2(F)F)c(=O)n1 [Gemcitabine hydrochloride]

IC50 (And‐1 [1]; [6]): 21.3 µM
IC50 (And‐1 [1]; [7]): 18.8 µM
IC50 (And‐1 [1]; [8]): 23.8 µM
Compound: C=CCc1cccc(/C=N/NC(=O)CN2CCN(Cc3ccccc3)CC2)c1O [PAC-1]

DC50 (And‐1 [1]; [6]): 21.1 µM
DC50 (And‐1 [1]; [7]): 22.9 µM
DC50 (And‐1 [1]; [8]): 19.3 µM
Compound: COCCOC(=O)C1=C(C)NC(C)=C(C(=O)OC/C=C/c2ccccc2)C1c1cccc([N+](=O)[O-])c1 (centres unmarked) [Cilnidipine]
